Assay results reported in patent publication US10265297B2 (Council of Scientific & Industrial Research, priority 2016, dated 2019).
Marks after values point to notes of the source that are not given here.

Legend:
[1] = system: ovariectomized Sprague Dawley rats; assay: Ovariectomized (OVx) rats: trabecular microarchitecture of femur and uterine weight; assay type: in vivo; settings: for BV/TV / Po (tot) (Total porosity percent) / SMI / Tb.No / Tb.Pf (Trabecular pattern factor) / Tb.Sp: femur epiphysis
Protocol: The study was conducted in accordance with current legislation on animal experiments [Institutional Animal Ethical Committee (IAEC)] at C.D.R.I. […] Sprague Dawley rats weighing ˜180-200 gm were either bilaterally ovariectomized (OVx) or exposed to a sham surgical procedure. All rats were individually housed at 21° C., in 12-h light:12-h dark cycles. All rats had excess to normal chow diet and water ad libitum. After OVx, the rats were left for 12 weeks to develop osteopenia. After 12 weeks, extract treatment in the form of gavage (50.0 mg and 100 mg/kg body weight), and iPTH 30 μg·kg^−1 three times a week was given daily. Equal numbers of OVx and sham operated rats served as the control, and were given vehicle (20% ethanol). The rats were weighed each week. At the end of 12 weeks, urine was to be collected for biochemical assessment therefore the rats were caged individually in plastic cages fitted with steel mesh for a total period of 48 h preceding autopsy and had free access to normal chow diet and water for the first 24 h initially for of acclimatization and then during the next 24 h, animals received only water ad libitum. After twenty-four hours of fasting urine samples were collected in fresh containers, centrifuged at 2000 rpm at room temperature and stored at […] until analyzed. Rats were then euthanized. At autopsy, blood samples were collected by cardiac puncture in tubes. Uteri were carefully excised, gently blotted, weighed, and fixed for histology and histomorphometry. About 5 mm pieces from the middle segment of each uterus were dehydrated in ascending grades of ethanol, cleared in xylene, and embedded in paraffin wax using standard procedures. Photomicrographs of sections were obtained using a Leica DC 300 camera and Leica IM50 Image Acquisition software fitted to a Leica DMLB microscope. Histomorphometric measurements were done using Leica Qwin-Semiautomatic image Analysis software. μCT (both 2-D and 3-D) determination of excised bones was carried out using the Sky Scan 1076 μCT scanner (Aartselaar, Belgium) using the cone-beam reconstruction software version 2.6 based on the Feldkamp algorithm (Skyscan).
Trabecular response to FSE treatment of OVx rats was quantified at the femur epiphysis. […] Efficacy of OVx was confirmed by studying uterine weight. […] OVx group had reduced uterine weight as compared with the ovary intact, sham group. […] E2 increased uterine weight in OVx rats equal to the sham group.

[2] = Oral pharmacokinetics in male Sprague Dawley rats; assay type: in vivo; settings: rat, serum, 250 mg/kg; for Vd/F: read-out: Vss/F
calvarial osteoblasts = assay: Mineralization (Alizarin Red-S) in calvarial osteoblasts; assay type: cell-based; settings: various concentration, 18 days, compared to untreated cells
Protocol: FIG. 5A-5C: Activity of the compound C003/K008 isolated from the extract was assessed by measuring ALP activity in calvarial osteoblast cells. At the end of the experiment, ALP activity was measured colorimetrically. […] (*p<0.05, **p<0.01 and ***p<0.001 when compared with control). Calvarial osteoblasts were treated with compound C003/K008 at various concentration for 18 days to induce mineralization. […] Values are expressed as mean±SEM. ***p<0.001 and *p<0.05 when compared with control (untreated cells).
Compound (2492/K008) was isolated from butanolic fraction and alkaline phosphatase activity and mineralization in calvarial osteoblast cells assessed with different concentrations of the test compound or vehicle for 48 hrs in growth medium supplemented with 10 mM β-glycerophosphate and 50 μg/ml ascorbic acid. At the end of incubation period, cells were washed with PBS and kept in −80° C. for 30 min and then at 37° C. for 30 min. ALP activity was measured using p-nitrophenylphosphate (PNPP) as substrate and absorbance was read at 405 nm. SE increased the alkaline phosphatase activity from doses ranging from […] as compared to the control with ˜2.0 fold increase in the ALP activity at 1 μM.

[3] = system: drill-hole injury in femur of adult female Sprague Dawley rats; assay: Drill hole model for fracture healing (micro-CT, calcein labeling, qPCR); assay type: in vivo; settings: 30 μg/kg s.c. injection
Protocol: Drill-hole injury was created in the mid femur region 1 cm above the knee joint by inserting a drill hole of diameter 0.8 mm in the anterior portion of the diaphysis of the bilateral femurs. Treatment was started next day of injury and continued for 14 days. Each animal received intraperitoneal administration of fluorochrome calcein(20 mg/kg) 24 h before autopsy. After 14 days of treatment, animals were sacrificed and autopsied to collect their femurs for the measurement of bone micro-architectural parameters. Bones were embedded inacrylic material and […] sections were made using an Isomet BoneCutter (Buehler, Lake Bluff, Ill., USA) and photographs taken under confocal microscope LSM 510 Meta, Carl Zeiss, Maple Grove, Minn., USA) aided with appropriate filters. The intensity of calcein binding, was calculated using Carl Zeiss AM 4.2 image-analysis software.
(A) In vivo regeneration of bone to monitor local repair process was done using micro-CT after creation of the hole using on femur of 0.8 mm diameter. […] Modest mineralized calluses appeared at defect and intra-medulla region of treated groups. By day 14, extent of callus mineralization increased, in the intra-medulla region.
The model was made as described above and then treatment of extract and Formulated Spinacea Extraxt (FSE) was started at doses of 250 and 750 mg·kg^−1·day^−1 from the next day of injury and continued for 14 days. After 14 days of treatment as described above, animals were sacrificed and autopsied to collect their femurs for the measurement of bonemicro architectural parameters at the drill-hole site. Bones were embedded inacrylic material and […] sections were made using an Isomet BoneCutter (Buehler, Lake Bluff, Ill., USA) and photographs taken under confocal microscope LSM 510 Meta, Carl Zeiss, Maple Grove, Minn., USA) aided with appropriate filters. The intensity of calcein binding, which is an indicator of the amount of new mineral deposition, was calculated using Carl Zeiss AM 4.2 image-analysis software. […]

Molecule: C[C@]12CC[C@@H]3c4ccc(O)cc4CC[C@H]3[C@@H]1CC[C@@H]2O [Compound E2]
- Uteriewt ([1]; Ovx + E2 (0.1 mgkg^−1day^−1)): 329.63 ± 30.44 mg
- BV/TV ([1]; Ovx + E2 (0.1 mgkg^−1day^−1)): 15.97 ± 1.88 %
- Po (tot) (Total porosity percent) ([1]; Ovx + E2 (0.1 mgkg^−1day^−1)): 85.24 ± 2.07%
- SMI ([1]; Ovx + E2 (0.1 mgkg^−1day^−1)): 1.67 ± 0.04
- Tb.No ([1]; Ovx + E2 (0.1 mgkg^−1day^−1)): 1.61 ± 0.23** mm^−1
- Tb.Pf (Trabecular pattern factor) ([1]; Ovx + E2 (0.1 mgkg^−1day^−1)): 6.22 ± 0.72
- Tb.Sp ([1]; Ovx + E2 (0.1 mgkg^−1day^−1)): 0.76 ± 0.1 mm

Molecule: COc1c(-c2ccc(O)c(O)c2)oc2cc3c(c(O)c2c1=O)OCO3 [Compound K007, 5,3′,4′-trihydroxy-3-methoxy-6,7-methylenedioxy-flavone]
- AUC(0-t) [2]: 39 ng·h/mL
- CL/F [2]: 213 mL/min/kg
- Cmax [2]: 7.6 ng/mL
- MRT [2]: 3.4 h
- Tmax [2]: 2 h
- Vd/F [2]: 43.3 L/kg

Molecule: COc1c(O)cc2oc(-c3ccc(O)c(O)c3)c(OC)c(=O)c2c1O [Compound K008, 5,7,3′,4′-tetrahydroxy-3,6-dimethoxy-flavone]
- formation of mineralized nodules (Alizarin Red-S) (calvarial osteoblasts): increased formation of mineralized nodules
- AUC(0-t) [2]: 23.3 ng·h/mL
- CL/F [2]: 23.3 mL/min/kg
- Cmax [2]: 5 ng/mL
- MRT [2]: 3.9 h
- Tmax [2]: 2 h
- Vd/F [2]: 5.6 L/kg

Molecule: PTH: parathyroid hormone, standard marketed anabolic drug, injectable
- BV/TV [3]: 60.3 ± 1.91 %
- Calcein intensity [3]: 15.3 ± .055 %
- SMI (Index) [3]: 0.65 ± 0.07
- Uteriewt ([1]; Ovx + PTH (30 μg/kg bw)): 91.18 ± 3.84 mg
- BV/TV ([1]; Ovx + PTH (30 μg/kg bw)): 22.78 ± 1.76 %
- Po (tot) (Total porosity percent) ([1]; Ovx + PTH (30 μg/kg bw)): 76.79 ± 2.35 %
- SMI ([1]; Ovx + PTH (30 μg/kg bw)): 1.26 ± 0.18
- Tb.No ([1]; Ovx + PTH (30 μg/kg bw)): 2.43 ± 0.19*** mm^−1
- Tb.Pf (Trabecular pattern factor) ([1]; Ovx + PTH (30 μg/kg bw)): 5.31 ± 0.68
- Tb.Sp ([1]; Ovx + PTH (30 μg/kg bw)): 0.63 ± 0.07 mm
